In US11352322B2, “Cyclopropyl-amide compounds as dual LSD1/HDAC inhibitors” (Jubilant Epicore LLC, priority 2016, dated 2022):
Counter-ions that a name gives are not always drawn. Like-named read-outs stand apart in the source and are kept apart here.

Tests used:
LSD1 = LSD1 (Homo sapiens (Human), UniProt O60341); assay: TR-FRET Assay for LSD1; settings: read-out: LSD1 IC50
Description: TR-FRET Assay for LSD1 (Perkin Elmer)
Tranylcypromine (TCP), LSD1 inhibitor was procured from Selleckchem. […] Stop Solution containing 300 μM tranylcypromine in 1× LANCE Detection Buffer was added to the wells and incubated for 5 min at RT. Then, Detection mix containing 2 nM Eu-Ab and 50 nM ULight-Streptavidin in 1× LANCE Detection Buffer was prepared and added to the reaction mix. This mixture was incubated for 1 hour at room temperature.

[1] = Metabolic stability in liver microsomes, HLM; settings: 1 μM, NADPH
Description: (§1) The microsomal suspension was prepared by adding liver microsomes to 100 mM potassium phosphate buffer (pH7.4) to give a final protein concentration of 0.5 mg/mL. The stock solution of NCE (10 mM in DMSO) was added to the microsomes to provide a final concentration of 1 μM. […] Samples were vortexed and centrifuged at 5,000 rpm for 10 min to remove proteins. Supernatant were analyzed on LC-MS/MS.

MM1S = assay: Anticancer activity: Alamar Blue assay, MM1S; assay type: cell-based; settings: Homo sapiens, MM1.S, read-out: MM1S EC50
[2] = Metabolic stability in liver microsomes, MLM; settings: 1 μM, NADPH
Description: as §1

[3] = target: HDAC6 human recombinant enzyme (Homo sapiens (Human), UniProt Q9UBN7); assay: Histone Deacetylase Assay (BPS Biosciences), HDAC6; assay type: biochemical
Sequence of HDAC6 human recombinant enzyme (Q9UBN7 whole entry): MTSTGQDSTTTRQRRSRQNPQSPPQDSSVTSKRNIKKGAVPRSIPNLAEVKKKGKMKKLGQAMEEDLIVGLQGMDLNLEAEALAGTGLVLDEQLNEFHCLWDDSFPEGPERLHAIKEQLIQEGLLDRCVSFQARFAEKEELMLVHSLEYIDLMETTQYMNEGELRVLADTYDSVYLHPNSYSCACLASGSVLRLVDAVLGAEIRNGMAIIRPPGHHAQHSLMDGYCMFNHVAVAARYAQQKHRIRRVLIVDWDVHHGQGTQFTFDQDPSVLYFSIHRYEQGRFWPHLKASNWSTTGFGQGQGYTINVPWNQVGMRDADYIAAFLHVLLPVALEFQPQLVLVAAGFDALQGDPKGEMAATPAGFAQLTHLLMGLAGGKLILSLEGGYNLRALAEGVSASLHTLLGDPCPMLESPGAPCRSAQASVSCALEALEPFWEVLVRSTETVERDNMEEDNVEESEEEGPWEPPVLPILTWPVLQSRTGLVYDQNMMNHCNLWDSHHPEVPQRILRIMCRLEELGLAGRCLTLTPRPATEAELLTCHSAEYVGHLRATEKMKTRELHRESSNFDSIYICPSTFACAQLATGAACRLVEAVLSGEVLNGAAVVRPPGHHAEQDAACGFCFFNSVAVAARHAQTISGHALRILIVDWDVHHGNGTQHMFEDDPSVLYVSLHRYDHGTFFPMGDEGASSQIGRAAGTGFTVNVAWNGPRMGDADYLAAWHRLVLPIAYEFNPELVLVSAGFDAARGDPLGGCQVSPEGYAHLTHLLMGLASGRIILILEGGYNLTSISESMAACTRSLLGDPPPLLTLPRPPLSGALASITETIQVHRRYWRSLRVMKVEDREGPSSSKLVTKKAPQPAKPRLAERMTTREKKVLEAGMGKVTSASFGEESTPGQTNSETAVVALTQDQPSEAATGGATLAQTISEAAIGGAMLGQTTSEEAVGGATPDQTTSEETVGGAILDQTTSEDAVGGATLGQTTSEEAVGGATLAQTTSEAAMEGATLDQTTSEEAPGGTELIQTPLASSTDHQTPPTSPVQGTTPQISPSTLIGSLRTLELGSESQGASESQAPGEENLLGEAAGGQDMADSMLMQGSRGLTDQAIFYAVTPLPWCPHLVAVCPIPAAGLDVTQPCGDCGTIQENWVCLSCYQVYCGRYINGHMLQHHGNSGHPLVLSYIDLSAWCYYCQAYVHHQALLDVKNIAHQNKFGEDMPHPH
From the text: Histone Deacetylase Assay (BPS Biosciences)
Histone deacetylase assay was done as per manufacturer's instructions.

Row | SMILES | IC50 (LSD1) | Metabolic stability HLM % remaining in 30 min [1] | EC50 (MM1S) | Metabolic stability MLM % remaining in 30 min [2] | IC50 [3] | EC50 (MM1S; MM1S cells)
1 | Nc1ccc(F)cc1NC(=O)c1ccc(CCCN2CCC(CNC3CC3c3ccc(F)cc3)CC2)cc1 (centres unmarked) [Example 132, N-(2-amino-5-fluorophenyl)-4-(3-(4-(((2-(4-fluorophenyl)cyclopropyl)amino)methyl)piperidin-1-yl)propyl)benzamide TFA Salt] | 5 nM | 81% | 21 nM | 80% | > 10000 nM | 
2 | Nc1ccccc1NC(=O)c1ccc(CCC(=O)N2CCC(CNC3CC3c3ccccc3)CC2)cc1 (centres unmarked) [Example 134, N-(2-aminophenyl)-4-(3-oxo-3-(4-(((2-phenylcyclopropyl)amino)methyl)piperidin-1-yl)propyl)benzamide TFA Salt] | 42 nM | 10/10% | 174 nM | 10/10% | > 10000 nM | 
3 | O=C(NO)c1ccc(CCCN2CC(CNC3CC3c3ccc(F)cc3)C2)cc1 (centres unmarked) [Example 48, 4-(3-(3-(((2-(4-fluorophenyl)cyclopropyl)amino)methyl)azetidin-1-yl)propyl)-N-hydroxy benzamide TFA Salt] | 29 nM | 85% |  | < 5% | 184 nM | 25 nM
4 | Cn1cc(-c2ccc(C3CC3NCC3CN(C(=O)/C=C/c4ccc(C(=O)NO)cc4)C3)cc2)cn1 (centres unmarked) [Example 119, (E)-N-hydroxy-4-(3-(3-(((2-(4-(1-methyl-1H-pyrazol-4-yl)phenyl)cyclopropyl)amino)methyl)azetidin-1-yl)-3-oxoprop-1-en-1-yl)benzamide TFA Salt] | 19 nM | 72% | 772 nM | 49% | 49 nM | 
5 | CN1C(=O)C(C)(C)c2cc(C3CC3NCC3CCN(CCCc4ccc(C(=O)NO)cc4)CC3)ccc21 (centres unmarked) [Example 81, N-hydroxy-4-(3-(4(((2-(1,3,3,-trimethyl-2-oxoindoline-5-yl)cyclopropyl)amino)methyl)piperidine-1-yl)propyl)benzamide TFA Salt] | 394 nM | >95/>95% |  | >95/>95% | 125 nM | 22 nM
6 | Nc1ccccc1NC(=O)c1ccc(CCC(=O)N2CCC(NC3CC3c3ccccc3)CC2)cc1 (centres unmarked) [Example 133, N-(2-aminophenyl)-4-(3-oxo-3-(4-((2-phenylcyclopropyl)amino)piperidin-1-yl)propyl)benzamide TFA Salt] | 40 nM | 19% |  | 9% | > 10000 nM | 
7 | O=C(NO)c1ccc(CCCN2CCC(CNC3CC3c3ccc(-c4ccc(C(F)(F)F)nc4)cc3)CC2)cc1 (centres unmarked) [Example 66, N-hydroxy-4-(3-(4-(((2-(4-(6-(trifluoromethyl)pyridin-3-yl)phenyl)cyclopropyl)amino)methyl)piperidin-1-yl)propyl)benzamide TFA Salt] | 19 nM | 79% |  | 85% | 100 nM | 
8 | CN(C)CCNC(=O)c1ccc(C2CC2NCC2CCN(CCCc3ccc(C(=O)NO)cc3)CC2)cc1 (centres unmarked) [Example 55, N-(2-(dimethylamino)ethyl)-4-(2-(((1-(3-(4-(hydroxycarbamoyl)phenyl)propyl)piperidin-4-yl)methyl)amino)cyclopropyl)benzamide TFA Salt] | 22 nM | 40% |  | 36% | 130 nM | 
9 | Nc1ccccc1NC(=O)c1ccc(CN2CCC(CNC3CC3c3ccc(-c4cncnc4)cc3)CC2)cc1 (centres unmarked) [Example 144, N-(2-aminophenyl)-4-((4-(((2-(4-(pyrimidin-5-yl)phenyl)cyclopropyl)amino)methyl)piperidin-1-yl)methyl)benzamide TFA Salt] | 41 nM | 68% | 152 nM | 52% | > 10000 nM | 
10 | O=C(NO)c1cccc(CNC2CC2c2ccccc2)c1 (centres unmarked) [Example 27, N-hydroxy-3-(((2-phenylcyclopropyl)amino)methyl)benzamide TFA] | 16 nM | 75% |  | 51% | > 1000 nM | 
11 | Nc1ccccc1NC(=O)c1ccc(CCCn2cc(CNC3CC3c3ccccc3)nn2)cc1 (centres unmarked) [Example 137, N-(2-aminophenyl)-4-(3-(4-(((2-phenylcyclopropyl)amino)methyl)-1H-1,2,3-triazol-1-yl)propyl)benzamide TFA Salt] | 139 nM |  |  |  | > 10000 nM | 126 nM
12 | Cn1ccc(-c2ccc(C3CC3NCC3CCN(CCCc4ccc(C(=O)NO)cc4)CC3)cc2)cc1=O (centres unmarked) [Example 60, N-hydroxy-4-(3-(4-(((2-(4-(1-methyl-2-oxo-1,2-dihydropyridin-4-yl)phenyl)cyclopropyl)amino)methyl)piperidin-1-yl)propyl)benzamide TFA Salt] | 21 nM | 73% |  | 72% | 46 nM | 
13 | O=C(NO)c1cnc(N2CCC(CNC3CC3c3ccc(-c4ccc(F)cc4)cc3)CC2)nc1 (centres unmarked) [Example 15, 2-(4-(((2-(4′-fluoro-[1,1′-biphenyl]-4-yl)cyclopropyl)amino)methyl)piperidin-1-yl)-N-hydroxypyrimidine-5-carboxamide TFA Salt] | 95 nM |  |  |  | 134 nM | 12 nM
14 | Nc1ccccc1NC(=O)c1ccc(CCCn2cc(CNC3CC3c3ccccc3)cn2)cc1 (centres unmarked) [Example 138, N-(2-aminophenyl)-4-(3-(4-(((2-phenylcyclopropyl)amino)methyl)-1H-pyrazol-1-yl)propyl)benzamide TFA Salt] | 99 nM |  |  |  | > 10000 nM | 65 nM
15 | O=C(NO)c1ccc(S(=O)(=O)N2CCC(CNC3CC3c3ccccc3)CC2)cc1 (centres unmarked) [Example 85, N-hydroxy-4-((4-(((2-phenylcyclopropyl)amino)methyl)piperidin-1-yl)sulfonyl)benzamide TFA Salt] | 62 nM |  |  |  | 575 nM | > 10000 nM
16 | Nc1ccccc1NC(=O)c1ccc(Cn2cc(CNC3CC3c3ccccc3)nn2)cc1 (centres unmarked) [Example 146, N-(2-aminophenyl)-4-((4-(((2-phenylcyclopropyl)amino)methyl)-1H-1,2,3-triazol-1-yl)methyl)benzamide TFA Salt] | 69 nM |  |  |  | > 10000 nM | 106 nM
17 | O=C(NO)c1ccc(OCCN2CCC(CNC3CC3c3ccc(-c4ccc(F)cc4)cc3)CC2)nc1 (centres unmarked) [Example 98, 6-(2-(4-(((2-(4′-fluoro-[1,1′-biphenyl]-4-yl)cyclopropyl)amino)methyl)piperidin-1-yl)ethoxy)-N-hydroxynicotinamide TFA Salt] | 37 nM |  |  |  | 5960 nM | > 10000 nM
18 | O=C(NO)c1cnc(CCCN2CCC(CNC3CC3c3ccccc3)CC2)s1 (centres unmarked) [Example 112, N-hydroxy-2-(3-(4-(((2-phenylcyclopropyl)amino)methyl)piperidin-1-yl)propyl)thiazole-5-carboxamide TFA Salt] | 22 nM |  |  |  | 517 nM | 63 nM
19 | Cn1cc(-c2ccc(C3CC3NCC3CCN(Cc4ccc(C(=O)NO)cc4)CC3)cc2)ccc1=O (centres unmarked) [Example 35, N-hydroxy-4-((4-(((2-(4-(1-methyl-6-oxo-1,6-dihydropyridin-3-yl)phenyl)cyclopropyl)amino)methyl)piperidin-1-yl)methyl)benzamide TFA Salt] | 34 nM |  |  |  | 199 nM | 1430 nM
20 | Nc1ccccc1NC(=O)c1ccc(OCCN2CCC(CNC3CC3c3ccc(F)cc3)CC2)nc1 (centres unmarked) [Example 149, N-(2-aminophenyl)-6-(2-(4-(((2-(4-fluorophenyl)cyclopropyl)amino)methyl)piperidin-1-yl)ethoxy)nicotinamide TFA Salt] | 21 nM |  |  |  | > 10000 nM | > 10000 nM
21 | CC(C)n1cc(C2CC2NCC2CCN(CCCc3ccc(C(=O)Nc4ccccc4N)cc3)CC2)cn1 (centres unmarked) [Example 128, N-(2-aminophenyl)-4-(3-(4-(((2-(1-isopropyl-1H-pyrazol-4-yl)cyclopropyl)amino)methyl)piperidin-1-yl)propyl)benzamide TFA Salt] | 128 nM |  |  |  | > 10000 nM | 70 nM
22 | O=C(NO)c1ccc(S(=O)(=O)NCCN2CCC(CNC3CC3c3ccc(F)cc3)CC2)cc1 (centres unmarked) [Example 87, 4-(N-(2-(4-(((2-(4-fluorophenyl)cyclopropyl)amino)methyl)piperidin-1-yl)ethyl)sulfamoyl)-N-hydroxybenzamide TFA Salt] | 25 nM |  |  |  | 1060 nM | 9110 nM
23 | O=C(NO)c1ccc(CCN2CCC(CNC3CC3c3ccccc3)CC2)cc1 (centres unmarked) [Example 42, N-hydroxy-4-(2-(4-(((2-phenylcyclopropyl)amino)methyl)piperidin-1-yl)ethyl)benzamide TFA Salt] | 15 nM |  |  |  | 490 nM | 190 nM
24 | O=C(NO)c1ccc(OCCN2CCC(CNC3CC3c3ccccc3)CC2)nc1 (centres unmarked) [Example 97, N-hydroxy-6-(2-(4-(((2-phenylcyclopropyl)amino)methyl)piperidin-1-yl)ethoxy)nicotinamide TFA Salt] | 33 nM |  |  |  | > 10000 nM | > 10000 nM
25 | O=C(NO)c1ccc(CCCn2cnc(CNC3CC3c3ccccc3)c2)cc1 (centres unmarked) [Example 75, N-hydroxy-4-(3-(4-(((2-phenylcyclopropyl)amino)methyl)-1H-imidazol-1-yl)propyl) benzamide TFA Salt] | 286 nM |  |  |  | 365 nM | 246 nM
